Measurements taken from the supplement of paper PMC4862054.

Assays:
Conditions in all cases: incubation time: 72 h
MFM-223 [1] = test: drug sensitivity score (DSS), CellTiter-Blue viability (DSS (AUC-based score)); higher = stronger viability inhibition; extreme values may be limits of the assay
Protocol: (§1)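 DSRT with the CellTiter-Blue (resazurin reduction) viability readout, fluorescence 560/590 nm, 72 h incubation. Plates were normalised to DMSO and benzethonium chloride controls. DSS is computed from the area under the fitted dose-response curve (5 or 9 concentrations).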

BT-549 [2] = test: as above
Protocol: as §1

CAL-51 [3] = test: normalised viability (% of control), CellTiter-Blue; higher = more viable cells (about 100 = DMSO control)
Procedure, shortened: (§2)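 Breast cancer cell lines were treated for 72 h in 384-well format and measured by CellTiter-Blue fluorescence at 560/590 nm. Results were normalised per plate to vehicle (100) and a positive kill control (0). The entry is normalised viability at a single listed concentration of the series.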

Hs578T [4] = test: as above
Procedure, shortened: as §2

SK-BR-3 [5] = test: as above
Procedure, shortened: as §2

MDA-MB-231 [6] = test: as above
Procedure, shortened: as §2

MFM-223 [7] = test: as above
Procedure, shortened: as §2

HCC1599 [8] = test: as above
Procedure, shortened: as §2

DU-4475 [9] = test: as above
Procedure, shortened: as §2

CAL-51 [10] = test: normalised viability (% of control), CellTiter-Blue; higher = more viable cells (about 100 = DMSO control); remark: listed apart in the source
Protocol: (§3)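 DSRT, CellTiter-Blue viability, 72 h incubation. Signal is normalised to DMSO and benzethonium chloride controls. Value is the normalised response at dose 3.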

HCC1937 = test: as above
Protocol: as §3

Hs578T [11] = test: as above; remark: listed apart in the source
Protocol: as §3

HDQ-P1 = test: as above
Protocol: as §3

SK-BR-3 [12] = test: as above; remark: listed apart in the source
Protocol: as §3

MDA-MB-231 [13] = test: as above; remark: listed apart in the source
Protocol: as §3

CAL-148 = test: as above
Protocol: as §3

CAL-85-1 = test: as above
Protocol: as §3

BT-474 = test: as above
Protocol: as §3

MFM-223 [14] = test: as above; remark: listed apart in the source
Protocol: as §3

HCC1599 [15] = test: as above; remark: listed apart in the source
Protocol: as §3

MDA-MB-468 = test: as above
Protocol: as §3

HCC1143 = test: as above
Protocol: as §3

CAL-120 = test: as above
Protocol: as §3

BT-549 [16] = test: as above
Protocol: as §3

DU-4475 [17] = test: as above; remark: listed apart in the source
Protocol: as §3

MDA-MB-453 = test: as above
Protocol: as §3

MDA-MB-436 = test: as above
Protocol: as §3

CC(C)C[C@H](NC(=O)[C@H](CCc1ccccc1)NC(=O)CN1CCOCC1)C(=O)N[C@@H](Cc1ccccc1)C(=O)N[C@@H](CC(C)C)C(=O)[C@@]1(C)CO1 [Carfilzomib]
Conditions | drug sensitivity score
BT-549 [2] | 29.2
MFM-223 [1] | 26.4

Conditions | normalised viability [%]
BT-474, 10 nM | 87.2
BT-549 [16], 10 nM | 12.5
CAL-51 [3], 0.3 nM | 111
CAL-51 [3], 3 nM | 102
CAL-51 [3], 10 nM | 81.4
CAL-51 [10], 1 nM | 106
CAL-85-1, 1 nM | 104
CAL-120, 10 nM | 46.2
CAL-148, 1 nM | 98.5
DU-4475 [9], 0.3 nM | 100
DU-4475 [9], 3 nM | 88.3
DU-4475 [9], 10 nM | 64.4
DU-4475 [17], 1 nM | 93.5
HCC1143, 10 nM | 53.4
HCC1599 [8], 1 nM | 106
HCC1599 [8], 100 nM | 64.6
HCC1599 [8], 1000 nM | 38.9
HCC1599 [15], 10 nM | 109
HCC1937, 10 nM | 22.8
HDQ-P1, 1 nM | 109
Hs578T [4], 1 nM | 126
Hs578T [4], 100 nM | 1.45
Hs578T [4], 1000 nM | 1.15
Hs578T [11], 10 nM | 13.8
MDA-MB-231 [6], 1 nM | 105
MDA-MB-231 [6], 100 nM | 2.47
MDA-MB-231 [6], 1000 nM | 7.05
MDA-MB-231 [13], 10 nM | 28.1
MDA-MB-436, 10 nM | 73.5
MDA-MB-453, 1 nM | 96.8
MDA-MB-468, 10 nM | 19.5
MFM-223 [7], 1 nM | 83.4
MFM-223 [7], 100 nM | 13
MFM-223 [7], 1000 nM | 14.4
MFM-223 [14], 10 nM | 14.8
SK-BR-3 [5], 1 nM | 97.8
SK-BR-3 [5], 100 nM | 16.7
SK-BR-3 [5], 1000 nM | 12.6
SK-BR-3 [12], 10 nM | 33.2

Nc1nc(Cl)nc2c1ncn2[C@@H]1O[C@H](CO)[C@@H](O)[C@@H]1F [Clofarabine]
Conditions | drug sensitivity score
BT-549 [2] | 10.6
MFM-223 [1] | 0

Conditions | normalised viability [%]
BT-474, 100 nM | 99.2
BT-549 [16], 100 nM | 85.6
CAL-51 [3], 3 nM | 109
CAL-51 [3], 30 nM | 102
CAL-51 [3], 100 nM | 108
CAL-51 [10], 10 nM | 111
CAL-85-1, 10 nM | 96.8
CAL-120, 100 nM | 78.8
CAL-148, 10 nM | 86.8
DU-4475 [9], 3 nM | 90.6
DU-4475 [9], 30 nM | 92.8
DU-4475 [9], 100 nM | 94.4
DU-4475 [17], 10 nM | 105
HCC1143, 100 nM | 79.7
HCC1599 [8], 10 nM | 106
HCC1599 [8], 1000 nM | 87.5
HCC1599 [8], 10000 nM | 71.6
HCC1599 [15], 100 nM | 93.7
HCC1937, 100 nM | 80
HDQ-P1, 10 nM | 110
Hs578T [4], 10 nM | 98.1
Hs578T [4], 1000 nM | 67.3
Hs578T [4], 10000 nM | 61.5
Hs578T [11], 100 nM | 84.6
MDA-MB-231 [6], 10 nM | 89.1
MDA-MB-231 [6], 1000 nM | 64.4
MDA-MB-231 [6], 10000 nM | 57.8
MDA-MB-231 [13], 100 nM | 64.2
MDA-MB-436, 100 nM | 77
MDA-MB-453, 10 nM | 103
MDA-MB-468, 100 nM | 91.3
MFM-223 [7], 10 nM | 92.6
MFM-223 [7], 1000 nM | 85.3
MFM-223 [7], 10000 nM | 86.2
MFM-223 [14], 100 nM | 89.1
SK-BR-3 [5], 10 nM | 93
SK-BR-3 [5], 1000 nM | 41.9
SK-BR-3 [5], 10000 nM | 35.6
SK-BR-3 [12], 100 nM | 65

COc1cc2c(Oc3ccc(NC(=O)C4(C(=O)Nc5ccc(F)cc5)CC4)cc3F)ccnc2cc1OCCCN1CCOCC1 [Foretinib]
Conditions | drug sensitivity score
BT-549 [2] | 0
MFM-223 [1] | 9.7

Conditions | normalised viability [%]
BT-474, 10 nM | 109
BT-549 [16], 10 nM | 107
CAL-51 [3], 0.3 nM | 99.1
CAL-51 [3], 3 nM | 88.6
CAL-51 [3], 10 nM | 95.2
CAL-51 [10], 1 nM | 93.2
CAL-85-1, 1 nM | 100
CAL-120, 10 nM | 89
CAL-148, 1 nM | 108
DU-4475 [9], 0.3 nM | 104
DU-4475 [9], 3 nM | 91.8
DU-4475 [9], 10 nM | 105
DU-4475 [17], 1 nM | 96.6
HCC1143, 10 nM | 99.9
HCC1599 [8], 1 nM | 77.2
HCC1599 [8], 100 nM | 89.9
HCC1599 [8], 1000 nM | 72.6
HCC1599 [15], 10 nM | 95.3
HCC1937, 10 nM | 97.7
HDQ-P1, 1 nM | 92.4
Hs578T [4], 1 nM | 114
Hs578T [4], 100 nM | 106
Hs578T [4], 1000 nM | 61
Hs578T [11], 10 nM | 97.5
MDA-MB-231 [6], 1 nM | 97.8
MDA-MB-231 [6], 100 nM | 113
MDA-MB-231 [6], 1000 nM | 50.6
MDA-MB-231 [13], 10 nM | 95.1
MDA-MB-436, 10 nM | 91.8
MDA-MB-453, 1 nM | 91.6
MDA-MB-468, 10 nM | 134
MFM-223 [7], 1 nM | 102
MFM-223 [7], 100 nM | 58.5
MFM-223 [7], 1000 nM | 35
MFM-223 [14], 10 nM | 80
SK-BR-3 [5], 1 nM | 97.5
SK-BR-3 [5], 100 nM | 102
SK-BR-3 [5], 1000 nM | 77.5
SK-BR-3 [12], 10 nM | 78.8

CC(C)C(=O)Nc1ccc([N+](=O)[O-])c(C(F)(F)F)c1 [Flutamide]
Conditions | drug sensitivity score
BT-549 [2] | 0
MFM-223 [1] | 0

Conditions | normalised viability [%]
BT-474, 100 nM | 115
BT-549 [16], 100 nM | 85.8
CAL-51 [3], 3 nM | 118
CAL-51 [3], 30 nM | 108
CAL-51 [3], 100 nM | 106
CAL-51 [10], 10 nM | 112
CAL-85-1, 10 nM | 100
CAL-120, 100 nM | 101
CAL-148, 10 nM | 99.3
DU-4475 [9], 3 nM | 111
DU-4475 [9], 30 nM | 85.1
DU-4475 [9], 100 nM | 97.2
DU-4475 [17], 10 nM | 92.6
HCC1143, 100 nM | 85.3
HCC1599 [8], 10 nM | 105
HCC1599 [8], 1000 nM | 114
HCC1599 [8], 10000 nM | 118
HCC1599 [15], 100 nM | 86.8
HCC1937, 100 nM | 108
HDQ-P1, 10 nM | 113
Hs578T [4], 10 nM | 96.4
Hs578T [4], 1000 nM | 109
Hs578T [4], 10000 nM | 96.7
Hs578T [11], 100 nM | 92
MDA-MB-231 [6], 10 nM | 93.7
MDA-MB-231 [6], 1000 nM | 99.5
MDA-MB-231 [6], 10000 nM | 102
MDA-MB-231 [13], 100 nM | 129
MDA-MB-436, 100 nM | 105
MDA-MB-453, 10 nM | 98.8
MDA-MB-468, 100 nM | 96.9
MFM-223 [7], 10 nM | 89.4
MFM-223 [7], 1000 nM | 84.8
MFM-223 [7], 10000 nM | 109
MFM-223 [14], 100 nM | 90
SK-BR-3 [5], 10 nM | 108
SK-BR-3 [5], 1000 nM | 106
SK-BR-3 [5], 10000 nM | 106
SK-BR-3 [12], 100 nM | 93.3
